# Test results as given in ChEMBL document CHEMBL5321254, “A method for tritiation of iboxamycin permits measurement of its ribosomal binding” (Bioorg Med Chem Lett, 2023).
# Legend:
# Assay type in all cases: subcellular
# [1] = target: Bacterial 70S ribosome; assay: Binding affinity to Escherichia coli ribosomes assessed as apparent inhibition constant by scintillation counter analysis; conditions: read-out: Ki(app)
# [2] = target: Bacterial 70S ribosome; assay: Binding affinity to Escherichia coli ribosomes assessed as apparent dissociation constant by scintillation counter analysis; conditions: read-out: Kd(app)
# [3] = target: Bacterial 70S ribosome (Bacteria) (UniProt P0A7V0+P60723+P0AG67+P0A7R5+P0A7R9+P0A7S3+P0A7S9+P0AG59+P0ADZ4+P0A7T3+P0AG63+P0A7T7+P0A7U3+P0A7U7+P68679+P0A7V3+P0A7V8+P0A7W1+P02358+P02359+P0A7W7+P0A7X3+P0A7J3+P0A7J7+P0AA10+P0ADY3+P02413+P0ADY7+P0AG44+P0C018+P0A7K6+P0A7L0+P0A7L3+P0AG48+P61175+P0ADZ0+P60624+P68919+P0A7L8+P0A7M2+P0A7M6+P60422+P0AG51+P0A7N1+P0A7M9+P0A7N4+P0A7N9+P0A7P5+P0A7Q1+Q2EEQ2+P0A7Q6+P60438+P62399+P0AG55+P0A7K2); assay: Potency index, ratio of clindamycin Ki(app) to test compound Ki(app) for binding affinity to Escherichia coli ribosomes
Ki [1] [nM],Kd [2] [nM],Ratio Ki(app) [3],SMILES
2700,–,–,CCC[C@@H]1C[C@@H](C(=O)N[C@@H]([C@H]2O[C@H](SC)[C@H](O)[C@@H](O)[C@H]2O)[C@H](C)Cl)N(C)C1 [CLINDAMYCIN]
41,34,70,CS[C@H]1O[C@H]([C@H](NC(=O)[C@H]2NC[C@@H]3C[C@H](CC(C)C)CCO[C@H]32)[C@H](C)Cl)[C@H](O)[C@H](O)[C@H]1O
